Laboratory results reported in ChEMBL document CHEMBL5370656, “Structure-Activity Relationship and Biological Investigation of a REV-ERBα-Selective Agonist SR-29065 (34) for Autoimmune Disorders” (J Med Chem, 2023).
The source made the active and inactive calls. The rule behind the calls is not given here.

How the values were obtained:
[1] = target: T1, Nuclear receptor subfamily 1 group D member 1 (Homo sapiens, UniProt P20393); assay: Agonist activity at his6-tagged human REV-ERBalpha LBD (281 to 614 residues) expressed in Escherichia coli assessed as increase in SMRT corepressor peptide […] by TR-FRET assay incubated for 2 hrs by TR-FRET assay
T1 sequence (P20393 whole entry): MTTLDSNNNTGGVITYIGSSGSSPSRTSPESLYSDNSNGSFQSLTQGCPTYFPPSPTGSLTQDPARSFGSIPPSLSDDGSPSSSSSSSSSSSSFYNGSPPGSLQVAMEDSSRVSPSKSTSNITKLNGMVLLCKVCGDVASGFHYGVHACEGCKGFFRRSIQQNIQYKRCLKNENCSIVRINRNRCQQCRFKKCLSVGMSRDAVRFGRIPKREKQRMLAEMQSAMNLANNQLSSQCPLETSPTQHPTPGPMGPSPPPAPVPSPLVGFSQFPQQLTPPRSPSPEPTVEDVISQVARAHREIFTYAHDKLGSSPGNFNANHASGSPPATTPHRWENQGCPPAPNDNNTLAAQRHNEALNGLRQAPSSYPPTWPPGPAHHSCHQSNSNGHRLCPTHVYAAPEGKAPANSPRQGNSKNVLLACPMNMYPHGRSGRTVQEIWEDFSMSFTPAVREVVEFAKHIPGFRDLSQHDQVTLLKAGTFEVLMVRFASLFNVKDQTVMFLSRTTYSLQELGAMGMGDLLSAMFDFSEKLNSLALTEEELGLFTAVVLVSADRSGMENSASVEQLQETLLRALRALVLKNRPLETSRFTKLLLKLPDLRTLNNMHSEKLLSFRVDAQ

CYP3A4 = CYP3A4 (Homo sapiens, UniProt P08684); assay: Inhibition of CYP3A4 (unknown origin) at 10 uM relative to control; type: ADME
[2] = Metabolic stability in human liver microsome assessed as half life; type: ADME; conditions: liver microsomes
[3] = Metabolic stability in mouse liver microsome assessed as half life; type: ADME; conditions: liver microsomes
Mus musculus [4] = assay: Protection against experimental autoimmune encephalomyelitis C57BL/6 mouse model assessed as decrease in number of T cells at 25 to 50 mg/kg, ip bid by flow cytometry analysis; type: functional, organism-based; conditions: T-cell, dose 25-50 mg/kg
Mus musculus [5] = assay: In-vivo agonist activity at REV-ERBalpha in experimental autoimmune encephalomyelitis C57BL/6 mouse model assessed as reduction in clock mRNA expression by RT-PCR analysis; type: functional
[6] = target: T1, Nuclear receptor subfamily 1 group D member 1; assay: Agonist activity at REV-ERBalpha LBD in HEK293 cells co-transfected with pG5-UAS pCMV-Gal4 incubated for 18 hrs by multimode plate reader analysis; type: cell-based
Th17 = assay: Downregulation of IL-17A expression in human Th17 cells; type: functional, cell-based; conditions: dose 1.25-10 µM
[7] = Toxicity in experimental autoimmune encephalomyelitis C57BL/6 mouse model assessed as animal weight loss at 25 to 50 mg/kg, ip bid; type: organism-based; conditions: in vivo, dose 25-50 mg/kg
CYP2C9 = CYP2C9 (Homo sapiens, UniProt P11712); assay: Inhibition of CYP2C9 (unknown origin) at 10 uM relative to control; type: ADME
Mus musculus [8] = assay: In-vivo agonist activity at REV-ERBalpha in experimental autoimmune encephalomyelitis C57BL/6 mouse model assessed as reduction in bmal1 mRNA expression by RT-PCR analysis; type: functional
[9] = Cmax in mouse at 50 mg/kg, ip measured for 12 hrs; type: ADME, organism-based; set-up: time 12 hrs, dose 50 mg/kg, route ip; conditions: in vivo
[10] = target: T2, Nuclear receptor subfamily 1 group D member 2 (Homo sapiens) (UniProt Q14995); assay: Agonist activity at human REV-ERBbeta
T2 sequence (whole entry): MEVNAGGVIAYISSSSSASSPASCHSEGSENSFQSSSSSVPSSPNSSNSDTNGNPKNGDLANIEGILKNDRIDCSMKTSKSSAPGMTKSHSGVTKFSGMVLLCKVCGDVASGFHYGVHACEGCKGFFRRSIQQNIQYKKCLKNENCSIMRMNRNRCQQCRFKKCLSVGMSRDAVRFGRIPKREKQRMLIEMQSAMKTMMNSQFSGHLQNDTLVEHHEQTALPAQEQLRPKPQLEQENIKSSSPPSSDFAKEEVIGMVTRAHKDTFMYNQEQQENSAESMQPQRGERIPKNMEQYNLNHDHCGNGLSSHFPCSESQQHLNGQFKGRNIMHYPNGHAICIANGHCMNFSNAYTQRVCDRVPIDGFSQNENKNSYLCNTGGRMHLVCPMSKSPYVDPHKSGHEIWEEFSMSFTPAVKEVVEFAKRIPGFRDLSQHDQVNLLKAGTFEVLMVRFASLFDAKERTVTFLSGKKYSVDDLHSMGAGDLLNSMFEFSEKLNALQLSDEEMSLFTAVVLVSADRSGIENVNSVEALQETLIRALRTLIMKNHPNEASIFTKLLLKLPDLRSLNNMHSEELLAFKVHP

Mus musculus [11] = assay: Protection against experimental autoimmune encephalomyelitis C57BL/6 mouse model assessed as disease onset at 25 to 50 mg/kg, ip bid; type: functional, organism-based; conditions: dose 25-50 mg/kg
CYP2D6 = CYP2D6 (Homo sapiens, UniProt P10635); assay: Inhibition of CYP2D6 (unknown origin) at 10 uM relative to control; type: ADME
Mus musculus [12] = assay: Protection against experimental autoimmune encephalomyelitis C57BL/6 mouse model assessed as reduction in disease severity at 25 to 50 mg/kg, ip bid; type: functional, organism-based; conditions: dose 25-50 mg/kg
[13] = Cytotoxicity against human Th17 cells assessed as reduction in cell viability at 1.25 to 10 uM; type: toxicity, cell-based; conditions: th17, 10 µM, dose 1.25-10 µM
[14] = Cmax in mouse at 50 mg/kg, ip measured at 2 hrs; type: ADME, organism-based; set-up: dose 50 mg/kg, time 2 hrs, route ip; conditions: in vivo
Mus musculus [15] = assay: Protection against experimental autoimmune encephalomyelitis C57BL/6 mouse model assessed as decrease in frequency of T cells at 25 to 50 mg/kg, ip bid by flow cytometry analysis; type: functional, organism-based; conditions: T-cell, dose 25-50 mg/kg
CYP1A2 = target: T3, CYP1A2 (Homo sapiens, UniProt P05177); assay: Inhibition of CYP1A2 (unknown origin) at 10 uM relative to control; type: ADME
T3 sequence (P05177 whole entry): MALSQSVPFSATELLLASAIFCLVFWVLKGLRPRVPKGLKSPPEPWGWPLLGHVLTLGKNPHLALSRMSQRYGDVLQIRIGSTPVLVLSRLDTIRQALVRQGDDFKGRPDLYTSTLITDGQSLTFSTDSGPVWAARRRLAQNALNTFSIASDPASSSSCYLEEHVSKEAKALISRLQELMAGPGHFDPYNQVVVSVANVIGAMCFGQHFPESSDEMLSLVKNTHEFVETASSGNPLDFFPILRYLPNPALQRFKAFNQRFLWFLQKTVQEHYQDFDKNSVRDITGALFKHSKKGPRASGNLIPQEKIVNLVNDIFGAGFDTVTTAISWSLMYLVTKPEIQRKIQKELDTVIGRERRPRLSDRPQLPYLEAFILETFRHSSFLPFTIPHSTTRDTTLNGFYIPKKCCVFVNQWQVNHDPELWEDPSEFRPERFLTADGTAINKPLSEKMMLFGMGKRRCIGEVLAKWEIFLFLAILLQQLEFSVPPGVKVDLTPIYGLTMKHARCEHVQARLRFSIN

CYP3A4, sequence (P08684 whole entry): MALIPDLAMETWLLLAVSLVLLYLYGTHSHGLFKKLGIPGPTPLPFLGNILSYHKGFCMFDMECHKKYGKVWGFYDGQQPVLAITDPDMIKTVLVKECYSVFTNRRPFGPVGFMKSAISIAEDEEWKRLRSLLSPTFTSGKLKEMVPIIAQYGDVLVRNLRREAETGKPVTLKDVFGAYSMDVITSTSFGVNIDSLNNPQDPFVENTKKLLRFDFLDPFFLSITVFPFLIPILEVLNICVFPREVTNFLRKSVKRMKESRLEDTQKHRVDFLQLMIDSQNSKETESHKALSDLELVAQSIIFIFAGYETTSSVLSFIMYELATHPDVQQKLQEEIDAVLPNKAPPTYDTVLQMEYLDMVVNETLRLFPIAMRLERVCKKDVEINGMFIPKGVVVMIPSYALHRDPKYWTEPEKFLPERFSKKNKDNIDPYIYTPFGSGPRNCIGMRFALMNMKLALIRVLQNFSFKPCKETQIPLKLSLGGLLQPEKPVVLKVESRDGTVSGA
CYP2D6, sequence (P10635 whole entry): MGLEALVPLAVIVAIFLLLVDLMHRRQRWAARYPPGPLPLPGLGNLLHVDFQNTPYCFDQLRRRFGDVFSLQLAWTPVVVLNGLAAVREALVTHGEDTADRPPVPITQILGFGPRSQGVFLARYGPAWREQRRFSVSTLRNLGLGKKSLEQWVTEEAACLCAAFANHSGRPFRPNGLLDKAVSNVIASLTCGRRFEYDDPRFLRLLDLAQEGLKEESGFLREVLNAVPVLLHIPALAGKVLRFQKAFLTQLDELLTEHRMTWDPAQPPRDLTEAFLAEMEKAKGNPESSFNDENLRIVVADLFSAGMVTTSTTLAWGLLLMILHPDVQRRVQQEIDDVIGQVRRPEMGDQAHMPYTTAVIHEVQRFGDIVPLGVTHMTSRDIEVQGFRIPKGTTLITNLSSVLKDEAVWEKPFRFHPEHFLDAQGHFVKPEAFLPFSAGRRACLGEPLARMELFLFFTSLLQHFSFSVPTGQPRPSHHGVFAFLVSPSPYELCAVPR
CYP2C9, sequence (P11712 whole entry): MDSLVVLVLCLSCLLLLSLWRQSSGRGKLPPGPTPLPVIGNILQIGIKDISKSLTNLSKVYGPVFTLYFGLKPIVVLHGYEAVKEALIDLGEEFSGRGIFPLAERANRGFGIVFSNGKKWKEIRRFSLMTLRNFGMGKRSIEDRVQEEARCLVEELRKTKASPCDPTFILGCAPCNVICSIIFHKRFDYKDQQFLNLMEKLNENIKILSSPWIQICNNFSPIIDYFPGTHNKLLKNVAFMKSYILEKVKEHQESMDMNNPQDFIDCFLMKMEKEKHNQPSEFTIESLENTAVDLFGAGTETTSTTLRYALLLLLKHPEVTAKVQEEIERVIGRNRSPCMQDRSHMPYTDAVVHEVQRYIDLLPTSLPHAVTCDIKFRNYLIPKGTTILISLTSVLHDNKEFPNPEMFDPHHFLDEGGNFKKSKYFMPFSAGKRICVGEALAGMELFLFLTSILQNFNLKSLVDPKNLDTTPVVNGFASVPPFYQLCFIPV

| Compound | EC50 [1] [nM] | half-life [2] [min] | half-life [3] [min] | other results |
| --- | --- | --- | --- | --- |
| CC(C)Cn1cc(CCNS(=O)(=O)N(C)C)c2ccc(-c3ccc(F)cc3)cc21 | 790 | – | – | – |
| CC(C)Cn1cc(CCNS(=O)(=O)N(C)C)c2ccc(-c3cccnc3)cc21 | 160 | – | – | inhibition at 10 µM (CYP3A4): 96% |
| CC(C)Cn1cc(CCNS(=O)(=O)C2CC2)c2ccc(-c3ccccc3C(F)(F)F)cc21 | – | 4 | 3 | – |
| CC(C)Cn1cc(CCNS(=O)(=O)N(C)C)c2ccc(-c3cccc(C#N)c3)cc21 | 370 | – | – | – |
| CC(C)Cn1cc(CCNS(=O)(=O)C2CC2)c2ccc(-c3ccncc3)cc21 | 25 | – | – | – |
| CC(C)Cn1cc(C(C)NS(=O)(=O)C2CC2)c2ccc(-c3ccccc3C(F)(F)F)cc21 (stereo not given) | 7 | 9 | 10 | – |
| CC(C)Cn1cc(CCNS(=O)(=O)N(C)C)c2ccc(-c3ccccn3)cc21 | 1000 | – | – | inhibition at 10 µM (CYP3A4): 96% |
| CC(C)Cn1cc(CCNS(=O)(=O)N(C)C)c2ccc(-c3cncnc3)cc21 | 2900 | – | – | – |
| CC(C)Cn1cc(C(C)(C)NS(=O)(=O)C2CC2)c2ccc(-c3ccccc3C(F)(F)F)cc21 | – | 80 | 3 | – |
| CC(C)Cn1cc(CNS(=O)(=O)C2CC2)c2ccc(-c3ccccc3C(F)(F)F)cc21 | – | 5 | 5 | – |
| CC(C)Cn1cc(C(NS(=O)(=O)C2CC2)C(F)(F)F)c2ccc(-c3ccccc3C(F)(F)F)cc21 (stereo not given) | 110 | 76 | 32 | Activity (Mus musculus [4]): Active; Activity (Mus musculus [5]): Active; EC50 [6]: 500 nM; Activity (Th17): Active; Activity [7]: Non-Toxic; inhibition at 10 µM (CYP2C9): < 30%; Activity (Mus musculus [8]): Active; Cmax [9]: ~0.8 µM; Activity [10]: inactive; Activity (Mus musculus [11]): Active; inhibition at 10 µM (CYP2D6): < 30%; inhibition at 10 µM (CYP3A4): < 30%; Activity (Mus musculus [12]): Active; Activity [13]: Non-Toxic; Cmax [14]: 12.2 µM; Activity (Mus musculus [15]): Active; inhibition at 10 µM (CYP1A2): < 30% |
| CC(C)Cn1cc(CCNS(=O)(=O)N(C)C)c2ccccc21 | 990 | – | – | – |
| CC(C)Cn1cc(CCNS(=O)(=O)N(C)C)c2ccc(-c3cnn(C)c3)cc21 | > 5000 | – | – | – |
| CC(C)Cn1cc(CCNS(=O)(=O)N(C)C)c2ccc(-c3ccccc3)cc21 | – | – | – | inhibition at 10 µM (CYP3A4): 22% |
